This series concerns CD34+ cells. The experiment in a line: Three-stage method with SR-1 or CH223191 in Stage 1 and Stage 2 media: NK cell expansion, purity, cytotoxicity. In kind it is cell-based. The conditions noted are these: for effects on fold expansion, cell purity (CD56+CD3−), and cytotoxicity of K562 cells at a 10:1 (E:T) ratio: SR-1 and CH223191 compared at 10 μM and 1 μM. On the procedure: CD34^+ cells are cultured in the following medium formulations for the indicated number of days, and aliquots of cells are taken for assessment of cell count, cell viability, characterization of natural killer cell differentiation and functional evaluation.
Stage 1 medium: 90% Stem Cell Growth Medium (SCGM) (CellGro®), 10% Human Serum-AB, supplemented with 4.5 U/mL low molecular weight heparin (LMWH), 25 ng/mL recombinant human thrombopoietin (TPO), 25 ng/mL recombinant human Flt3L, 27 ng/mL recombinant human stem cell factor (SCF), 25 ng/mL recombinant human IL-7, 0.05 ng/mL recombinant human IL-6 (500-fold), 0.25 ng/mL recombinant human granulocyte colony-stimulating factor (G-CSF) (50-fold), 0.01 ng/mL recombinant human granulocyte-macrophage colony-stimulating factor (GM-CSF) (500-fold), 0.10% gentamicin, and 1 to 10 μm StemRegenin-1 (SR-1).
Stage 2 medium: 90% SCGM, 10% Human Serum-AB, supplemented with 4.5 U/mL low molecular weight heparin (LMWH), 25 ng/mL recombinant human Flt3L, 27 ng/mL recombinant human SCF, 25 ng/mL recombinant human IL-7, 20 ng/mL recombinant human IL-15, 0.05 ng/mL recombinant human IL-6 (500-fold), 0.25 ng/mL recombinant human G-CSF (50-fold), 0.01 ng/mL recombinant human GM-CSF (500-fold), 0.10% gentamicin, and 1 to 10 μm SR1.
Stemregenin-1 (SR-1) was evaluated as a component of Stage 1 and Stage 2 media using the three-stage method outlined in Example 1, above, at concentrations of 1 μM, 10 μM, and 30 μM. The same concentrations of CH223191 in the three-stage method were also evaluated.

Regarding `Cc1ccccc1/N=N/c1ccc(NC(=O)c2ccnn2C)c(C)c1` [CH223191, 1-methyl-N-(2-methyl-4-(2-(2-methylphenyl)diazenyl)phenyl)-1H-pyrazole-5-carboxamide], the “effects on fold expansion, cell purity (CD56+CD3−), and cytotoxicity of K562 cells at a 10:1 (E:T) ratio” value is on record as “Comparable effects”. In the case of `CC(C)n1cnc2c(NCCc3ccc(O)cc3)nc(-c3csc4ccccc34)nc21` [SR-1, 4-(2-(2-(benzo[b]thien-3-yl)-9-isopropyl-9H-purin-6-ylamino)ethyl)phenol], the “effects on fold expansion, cell purity (CD56+CD3−), and cytotoxicity of K562 cells at a 10:1 (E:T) ratio” value is recorded as “Comparable effects”. Under “SR-1 at 10 μM versus 1 μM and 30 μM in Stage 1 and Stage 2 media”, the “cytotoxicity of the NK cells produced” value is on record as “higher cytotoxicity than the other two concentrations tested”.

The values are drawn from patent publication US20180008637A1, “NATURAL KILLER CELLS AND USES THEREOF” (ANTHROGENESIS CORPORATION, priority 2014, published 2018).
